The record followed here is patent US20080312200A1, “Medicament Comprising A Hormone Combination” (Grunenthal GmbH, priority 2006, published 2008).

Structures are written as SMILES.

As a reminder, the IC50 is the concentration at which inhibition is half-maximal. Lower therefore signals greater potency. By Ki is commonly meant the dissociation constant of the complex between target and ligand, obtained from inhibition or displacement. A high value points to a looser hold on the target.

One assay addresses T1, human androgen receptor (Homo sapiens, UniProt P10275, T878A).
T1 construct: The cytosolic fractions of LNCaP cells, which contain the human androgen receptor, are used; endogenous in cells; host or cells: LNCaP cells (cytosolic fraction)
T1 sequence (P10275 1-920 T878A): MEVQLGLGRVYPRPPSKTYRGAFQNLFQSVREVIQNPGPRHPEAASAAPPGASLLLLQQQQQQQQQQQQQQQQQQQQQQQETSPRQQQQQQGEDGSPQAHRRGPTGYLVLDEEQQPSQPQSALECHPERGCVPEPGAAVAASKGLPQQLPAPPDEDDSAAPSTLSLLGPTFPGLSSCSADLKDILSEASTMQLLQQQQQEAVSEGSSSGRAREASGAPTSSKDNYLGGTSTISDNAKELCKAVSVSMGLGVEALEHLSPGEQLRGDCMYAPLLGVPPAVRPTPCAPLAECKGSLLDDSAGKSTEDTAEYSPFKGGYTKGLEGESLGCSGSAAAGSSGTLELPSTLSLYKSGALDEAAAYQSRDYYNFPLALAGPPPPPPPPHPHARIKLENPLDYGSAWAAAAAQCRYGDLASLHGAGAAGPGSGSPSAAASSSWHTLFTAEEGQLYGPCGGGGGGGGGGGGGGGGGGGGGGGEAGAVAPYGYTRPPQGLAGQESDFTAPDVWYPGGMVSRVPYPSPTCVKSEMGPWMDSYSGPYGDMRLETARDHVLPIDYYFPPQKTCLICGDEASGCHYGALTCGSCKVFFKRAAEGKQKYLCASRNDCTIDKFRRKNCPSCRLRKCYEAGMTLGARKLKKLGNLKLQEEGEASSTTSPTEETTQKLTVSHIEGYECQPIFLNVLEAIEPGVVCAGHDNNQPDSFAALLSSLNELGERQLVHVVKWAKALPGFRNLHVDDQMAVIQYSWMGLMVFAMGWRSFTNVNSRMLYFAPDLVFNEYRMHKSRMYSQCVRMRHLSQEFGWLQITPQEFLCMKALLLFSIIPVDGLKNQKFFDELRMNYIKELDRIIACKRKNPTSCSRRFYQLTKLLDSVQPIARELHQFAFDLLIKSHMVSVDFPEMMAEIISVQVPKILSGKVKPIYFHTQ
Put plainly: Affinity for the human androgen receptor ([3H]methyltrienolone displacement, LNCaP cytosol). It is filed as binding. As for the experimental part:
The following determination of the affinity of 3-α-OH-CMA or 3-β-OH-CMA for the human androgen receptor is based on the experimental methods published by Zava et al. (Endocrinology, 1979, vol. 104, pp. 1007-1012). The corresponding disclosure is hereby introduced as a reference and is part of the disclosure of the present application.
The cytosolic fractions of LNCaP cells, which contain the human androgen receptor, are used. The reference substance used is 0.5 nM of [^3H]methyltrienolone; 1 μM of mibolerone is used for determining nonspecific binding. The incubation period of the substances ([^3H]methyltrienolone, 3-α-OH-CMA or 3-β-OH-CMA) on the receptor amounts in each case to 24 hours at a temperature of approx. 4° C. The stock solutions, the dilution series of 3-α-OH-CMA or 3-β-OH-CMA, the washing steps, the determination of radioactivity, and the methods for calculating the particular IC50 and Ki values match the experimental protocol described in point 2).

Another assay concerns GABAA receptors. Put plainly: Influence on the binding of [3H]muscimol to GABAA receptors (rat cerebral cortex membranes). Conditions: 5 nM [3H]muscimol. As for the experimental part: The following determinations of the influence of allopregnanolone, 3-α-OH-CMA or 3-β-OH-CMA on the binding of muscimol to GABAA receptors (rat) are based on the experimental methods published by Snodgrass, S. R. (Nature, 1979, vol. 273, p. 392-394). The corresponding disclosure is hereby introduced as a reference and is part of the disclosure of the present application.
Membrane preparations are produced from rat cerebral cortex material. The reference substance used is 5 nM of [^3H] muscimol; 10 μM of muscimol are used for determining nonspecific binding. The incubation period of the substances ([^3H]muscimol, allopregnanolone) on the receptor amounts in each case to 10 minutes at a temperature of approx. 4° C. The stock solution (5×10^−2 M) of allopregnanolone is in each case prediluted 1:10 in 75% strength DMSO and then further diluted 1:5 in 25% strength DMSO. The final concentration of allopregnanolone in the test is in each case 1×10^−10 M, 1×10^−9 M, 1×10^−8 M, 1×10^−7 M, 1×10^−6 M and 1×10^−5 M. After the above-stated incubation period of the substances, the incubation batches are filtered using standard methods and washed and the radioactivity of the filters is determined with a scintillation counter. Such standard methods are known to a person skilled in the art. The experiments are in each case carried out on duplicate batches.
The influence of 3-α-OH-CMA or 3-β-OH-CMA on the binding of muscimol to GABAA receptors (rat) is determined in a manner similar to the above-described method. 3-α-OH-CMA or 3-β-OH-CMA is used instead of allopregnanolone.

The target in assay [1] is T2, human progesterone receptor (Homo sapiens, UniProt P06401).
T2 construct: The cytosolic fractions of MCF-7 cells, which contain the human progesterone receptor, are used; endogenous in cells; host or cells: MCF-7 cells (cytosolic fraction)
T2 sequence (P06401 1-933): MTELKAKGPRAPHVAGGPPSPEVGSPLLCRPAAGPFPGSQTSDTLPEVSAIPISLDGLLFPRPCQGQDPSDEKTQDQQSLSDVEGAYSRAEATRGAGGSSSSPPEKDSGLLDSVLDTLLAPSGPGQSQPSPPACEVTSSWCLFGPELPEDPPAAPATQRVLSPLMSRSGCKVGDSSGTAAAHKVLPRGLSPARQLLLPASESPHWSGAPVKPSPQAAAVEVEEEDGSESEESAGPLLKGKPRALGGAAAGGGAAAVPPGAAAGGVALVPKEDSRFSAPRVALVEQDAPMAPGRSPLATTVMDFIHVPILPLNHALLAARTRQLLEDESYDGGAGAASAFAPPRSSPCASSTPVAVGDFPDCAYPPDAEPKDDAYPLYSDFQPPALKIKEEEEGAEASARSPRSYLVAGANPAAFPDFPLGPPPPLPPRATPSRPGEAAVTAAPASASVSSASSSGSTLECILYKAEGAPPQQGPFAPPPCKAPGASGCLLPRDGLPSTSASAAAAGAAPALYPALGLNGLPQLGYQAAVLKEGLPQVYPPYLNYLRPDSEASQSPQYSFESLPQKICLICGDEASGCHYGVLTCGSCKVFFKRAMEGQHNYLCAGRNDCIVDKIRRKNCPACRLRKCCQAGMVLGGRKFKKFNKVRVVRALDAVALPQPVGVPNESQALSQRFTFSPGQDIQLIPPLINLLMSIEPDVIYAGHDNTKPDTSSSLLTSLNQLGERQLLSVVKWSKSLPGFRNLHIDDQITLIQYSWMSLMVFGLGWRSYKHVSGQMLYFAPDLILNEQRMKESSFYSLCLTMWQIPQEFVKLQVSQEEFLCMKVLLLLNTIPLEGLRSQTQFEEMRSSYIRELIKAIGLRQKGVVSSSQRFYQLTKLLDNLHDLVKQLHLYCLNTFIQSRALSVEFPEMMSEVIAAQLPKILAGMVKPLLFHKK
Briefly: Affinity for the human progesterone receptor ([3H]R 5020 displacement, MCF-7 cytosol). It is filed as binding. Conditions: for IC50: 2 nM [3H]R 5020, MCF-7 cytosol, 20 hours, approx. 4° C.; for Ki: Cheng-Prusoff from IC50. The method, then: The following determination of the affinity of 3-α-OH-CMA or 3-β-OH-CMA for the human progesterone receptor is based on the experimental methods published by Eckert et al. (Cancer Research, 1982, vol. 42, pp. 139-144). The corresponding disclosure is hereby introduced as a reference and is part of the disclosure of the present application.
The cytosolic fractions of MCF-7 cells, which contain the human progesterone receptor, are used. The reference substance used is 2 nM of [^3H] R 5020; 1 μM of R 5020 is used for determining nonspecific binding. The incubation period of the substances ([^3H] R 5020, 3-α-OH-CMA or 3-β-OH-CMA) on the receptor amounts in each case to 20 hours at a temperature of approx. 4° C. Stock solutions (5×10^−2 M) of 3-α-OH-CMA or 3-β-OH-CMA are in each case prediluted 1:10 in 75% strength DMSO and then further diluted 1:5 in 25% strength DMSO. The final concentrations of 3-α-OH-CMA or 3-β-OH-CMA in the test are 3×10^−10 M, 3×10^−9 M, 1×10^−8 M, 3×10^−8 M, 1×10^−7 M, 3×10^−7 M, 1×10^−6 M and 1×10^−5 M. After the above-stated incubation period of the substances, the incubation batches are filtered using standard methods and washed and the radioactivity of the filters is determined with a scintillation counter. Such standard methods are known to a person skilled in the art. The experiments are in each case carried out on duplicate batches.
The corresponding IC50 values are calculated by nonlinear regression analysis of the displacement curves using the Hill curve fitting formula. A person skilled in the art is aware of such a calculation procedure.
The corresponding Ki values (inhibition constants) are determined using the Cheng-Prusoff equation (Ki=IC50/(1+(L/KD)), where L denotes the concentration of the radioligand in the test and KD the affinity of the radioligand for the receptor).

Turning to `CC(=O)O[C@]1(C(C)=O)CC[C@H]2[C@@H]3C=C(Cl)C4=C[C@H](O)CC[C@]4(C)[C@H]3CC[C@@]21C` [3-α-OH-CMA, 3α-hydroxy-6-chloro-17α-acetoxy-4,6-pregnadien-20-one], on human androgen receptor, the 50% inhibitory concentration (IC50) is 100 nM and the affinity corresponds to a Ki of 83 nM. In addition, in the assay with GABAA receptors (0.001 μM test substance), the “increase of binding of radioactively labelled muscimol” value (“increase” for short) is 12%. In assay [1], the IC50 was found to be 39 nM and the inhibitory constant (Ki) amounted to 13 nM.

For the compound `CC(=O)[C@H]1CC[C@H]2[C@@H]3CC[C@H]4C[C@H](O)CC[C@]4(C)[C@H]3CC[C@]12C` [allopregnanolone, reference compound], in the assay with GABAA receptors (1 μM test substance, 10 min, approx. 4° C.), the “increase” value was determined as 38%.

`CC(=O)O[C@]1(C(C)=O)CC[C@H]2[C@@H]3C=C(Cl)C4=C[C@@H](O)CC[C@]4(C)[C@H]3CC[C@@]21C` [3-β-OH-CMA, 3β-hydroxy-6-chloro-17α-acetoxy-4,6-pregnadien-20-one]: at human androgen receptor, the IC50 turned out to be 25 nM and the inhibition constant (Ki) came to 20 nM. Besides, the “increase” value in the assay on GABAA receptors (0.1 μM test substance) is given as 31%. In assay [1], the IC50 was determined as 18 nM and the affinity, expressed as Ki, was 6 nM.
